# According to patent publication US9346812B2, “Substituted pyrrolopyrimidine compounds, compositions thereof, and methods of treatment therewith” (Signal Pharmaceutical LLC, priority 2013, dated 2016):
# System: CAL51 cell proliferation
# Assay: Cell Titer Glo Proliferation Assay (CAL51)
# Format: cell-based, human
# Conditions: Homo sapiens, CAL-51, 72 h, read-out: Act. Level
# Description: Cell Titer Glo Proliferation Assay. Triple negative breast cancer cell line CAL51 was purchased from DSMZ. […] Allcell lines were maintained in growth media consisting of 90% high glucose Dulbecco's Modified Eagle Medium or RPMI1640 (Invitrogen), 10% fetal bovine serum (Hyclone), and 2 mM L-glutamine (Invitrogen). […] After overnight culture, compound stock (30 mM) was diluted serially in DMSO, further diluted in growth media, and was added to each well as a 10× concentrated solution in a volume of 11 μL, mixed, and allowed to incubate with cells. The compound vehicle (DMSO) was maintained at a final concentration of 0.2% in all wells. After 72 h, 100 μL of Cell Titer Glo solution (Promega) was added to each well of the 96-well plate. The plate was placed on a shaker for 2 minutes. After 10 minutes incubation, the luminescence signal was detected with Envision microplate reader (Perkin Elmer).
row,Structure (SMILES),IC50
1,"CNC(=O)c1ccc(Nc2nc(OC3CCCC3)c3c(-c4ccc(O)cc4)c[nH]c3n2)cc1 [Example 1, 4-(4-(cyclopentyloxy)-5-(4-hydroxyphenyl)-7H-pyrrolo[2,3-d]pyrimidin-2-ylamino)-N-methylbenzamide]",< 100 nM

# Same assay, conditions: Homo sapiens, CAL-51; CAL51 cell proliferation, 72 h, Cell Titer Glo luminescence; read-out: Act. Level
row,Structure (SMILES),IC50
1,CNC(=O)c1ccc(Nc2nc(OC3CCCC3)c3c(-c4ccc(O)cc4)c[nH]c3n2)c(C)c1 [Example 9],< 100 nM
2,"CNC(=O)c1ccc(Nc2nc(OC3CCCC3)c3c(-c4ccc(O)cc4)c[nH]c3n2)c(F)c1 [Example 15, 4-(4-(cyclopentyloxy)-5-(4-hydroxyphenyl)-7H-pyrrolo[2,3-d]pyrimidin-2-ylamino)-3-fluoro-N-methylbenzamide]",< 100 nM
3,"CNC(=O)c1ccc(Nc2nc(OC3CCCC3)c3c(-c4ccc(CO)cc4)c[nH]c3n2)c(OC)c1 [Example 23, 4-(4-(cyclopentyloxy)-5-(4-(hydroxymethyl)phenyl)-7H-pyrrolo[2,3-d]pyrimidin-2-ylamino)-3-methoxy-N-methylbenzamide]",100 to 400 nM
4,"CNC(=O)c1ccc(Nc2nc(OC3CCCC3)c3c(-c4ccc(O)c(Cl)c4)c[nH]c3n2)c(OC)c1 [Example 24, 4-(5-(3-chloro-4-hydroxyphenyl)-4-(cyclopentyloxy)-7H-pyrrolo[2,3-d]pyrimidin-2-ylamino)-3-methoxy-N-methylbenzamide]",< 100 nM
5,"CNC(=O)c1ccc(Nc2nc(OC3CCCC3)c3c(-c4ccc5cn[nH]c5c4)c[nH]c3n2)c(OC)c1 [Example 25, 4-(4-(cyclopentyloxy)-5-(1H-indazol-6-yl)-7H-pyrrolo[2,3-d]pyrimidin-2-ylamino)-3-methoxy-N-methylbenzamide]",100 to 400 nM
6,"CNC(=O)c1ccc(Nc2nc(OC3CCCC3)c3c(-c4cccc(CO)c4)c[nH]c3n2)c(OC)c1 [Example 26, 4-(4-(cyclopentyloxy)-5-(3-(hydroxymethyl)phenyl)-7H-pyrrolo[2,3-d]pyrimidin-2-ylamino)-3-methoxy-N-methylbenzamide]",< 100 nM
7,"CNC(=O)c1ccc(Nc2nc(OC3CCCC3)c3c(-c4ccc5nn[nH]c5c4)c[nH]c3n2)c(OC)c1 [Example 27, 4-(5-(1H-benzo[d][1,2,3]triazol-6-yl)-4-(cyclopentyloxy)-7H-pyrrolo [2,3-d]pyrimidin-2-ylamino)-3-methoxy-N-methylbenzamide]",< 100 nM
8,"CNC(=O)c1ccc(Nc2nc(OC3CCCC3)c3c(-c4ccc(-c5nnc[nH]5)cc4)c[nH]c3n2)c(OC)c1 [Example 28, 4-(5-(4-(4H-1,2,4-triazol-3-yl)phenyl)-4-(cyclopentyloxy)-7H-pyrrolo[2,3-d]pyrimidin-2-ylamino)-3-methoxy-N-methylbenzamide]",< 100 nM
9,"CNC(=O)c1ccc(Nc2nc(OC3CCOCC3)c3c(-c4ccc(O)cc4)c[nH]c3n2)c(Cl)c1 [Example 29, 3-chloro-4-(5-(4-hydroxyphenyl)-4-(tetrahydro-2H-pyran-4-yloxy)-7H-pyrrolo[2,3-d]pyrimidin-2-ylamino)-N-methylbenzamide]",< 100 nM
10,"CNC(=O)c1ccc(Nc2nc(OC3CCCC3)c3c(-c4ccc5nc[nH]c5c4)c[nH]c3n2)c(OC)c1 [Example 30, 4-(5-(1H-benzo[d]imidazol-6-yl)-4-(cyclopentyloxy)-7H-pyrrolo[2,3-d]pyrimidin-2-ylamino)-3-methoxy-N-methylbenzamide]",< 100 nM
11,"COc1cc(C(=O)N(C)C)ccc1Nc1nc(OC2CCCC2)c2c(-c3ccc(O)cc3)c[nH]c2n1 [Example 31, 4-(4-(cyclopentyloxy)-5-(4-hydroxyphenyl)-7H-pyrrolo[2,3-d]pyrimidin-2-ylamino)-3-methoxy-N,N-dimethylbenzamide]",< 100 nM
12,"CNC(=O)c1ccc(Nc2nc(OC3CCCC3)c3c(-c4ccc(NS(C)(=O)=O)cc4)c[nH]c3n2)c(OC)c1 [Example 32, 4-(4-(cyclopentyloxy)-5-(4-(methylsulfonamido)phenyl)-7H-pyrrolo[2,3-d]pyrimidin-2-ylamino)-3-methoxy-N-methylbenzamide]",< 100 nM
13,"CNC(=O)c1ccc(Nc2nc(OC3CCCC3)c3c(-c4ccc(O)c(C#N)c4)c[nH]c3n2)c(OC)c1 [Example 33, 4-(5-(3-cyano-4-hydroxyphenyl)-4-(cyclopentyloxy)-7H-pyrrolo[2,3-d]pyrimidin-2-ylamino)-3-methoxy-N-methylbenzamide]",< 100 nM
14,"CNC(=O)c1ccc(Nc2nc(OC3CCCC3)c3c(-c4cncc(OC)c4)c[nH]c3n2)c(Cl)c1 [Example 34, 3-chloro-4-(4-(cyclopentyloxy)-5-(5-methoxypyridin-3-yl)-7H-pyrrolo [2,3-d]pyrimidin-2-ylamino)-N-methylbenzamide]",100 to 400 nM
15,"CNC(=O)c1ccc(Nc2nc(OC3CCCC3)c3c(-c4ccc5oc(C)nc5c4)c[nH]c3n2)c(OC)c1 [Example 35, 4-(4-(cyclopentyloxy)-5-(2-methylbenzo[d]oxazol-5-yl)-7H-pyrrolo[2,3-d]pyrimidin-2-ylamino)-3-methoxy-N-methylbenzamide]",1000 to 10000 nM
16,"CNC(=O)c1ccc(Nc2nc(NC3CCCCC3)c3c(-c4ccc(O)cc4)c[nH]c3n2)c(OC)c1 [Example 36, 4-(4-(cyclohexylamino)-5-(4-hydroxyphenyl)-7H-pyrrolo[2,3-d]pyrimidin-2-ylamino)-3-methoxy-N-methylbenzamide]",< 100 nM
17,"CNC(=O)c1ccc(Nc2nc(OC3CCCC3)c3c(-c4ccc(N)cc4)c[nH]c3n2)c(OC)c1 [Example 37, 4-(5-(4-aminophenyl)-4-(cyclopentyloxy)-7H-pyrrolo[2,3-d]pyrimidin-2-ylamino)-3-methoxy-N-methylbenzamide]",< 100 nM
18,"CNC(=O)c1ccc(Nc2nc(OC3CCCC3)c3c(-c4ccc(NC(N)=O)cc4)c[nH]c3n2)c(OC)c1 [Example 39, 4-(4-(cyclopentyloxy)-5-(4-ureidophenyl)-7H-pyrrolo[2,3-d]pyrimidin-2-ylamino)-3-methoxy-N-methylbenzamide]",< 100 nM
19,"CNC(=O)c1ccc(Nc2nc(NC3CCOCC3)c3c(-c4ccc(O)cc4)c[nH]c3n2)c(OC)c1 [Example 40, 4-(5-(4-hydroxyphenyl)-4-(tetrahydro-2H-pyran-4-ylamino)-7H-pyrrolo[2,3-d]pyrimidin-2-ylamino)-3-methoxy-N-methylbenzamide]",< 100 nM
20,"CNC(=O)c1ccc(Nc2nc(OC3CCCC3)c3c(-c4ccc(-c5ccn[nH]5)cc4)c[nH]c3n2)c(OC)c1 [Example 41, 4-(5-(4-(1H-pyrazol-5-yl)phenyl)-4-(cyclopentyloxy)-7H-pyrrolo[2,3-d]pyrimidin-2-ylamino)-3-methoxy-N-methylbenzamide]",100 to 400 nM
21,"CNC(=O)c1ccc(Nc2nc(OC3CCCC3)c3c(-c4ccc(O)c(F)c4)c[nH]c3n2)c(OC)c1 [Example 42, 4-(4-(cyclopentyloxy)-5-(3-fluoro-4-hydroxyphenyl)-7H-pyrrolo[2,3-d]pyrimidin-2-ylamino)-3-methoxy-N-methylbenzamide]",< 100 nM
22,"CNC(=O)c1ccc(Nc2nc(OC3CCCC3)c3c(-c4ccc(O)c(C)c4)c[nH]c3n2)c(OC)c1 [Example 43, 4-(4-(cyclopentyloxy)-5-(4-hydroxy-3-methylphenyl)-7H-pyrrolo[2,3-d]pyrimidin-2-ylamino)-3-methoxy-N-methylbenzamide]",< 100 nM
23,"COc1cc(C(N)=O)ccc1Nc1nc(OC2CCCC2)c2c(-c3ccc(O)cc3)c[nH]c2n1 [Example 44, 4-(4-(cyclopentyloxy)-5-(4-hydroxyphenyl)-7H-pyrrolo[2,3-d]pyrimidin-2-ylamino)-3-methoxybenzamide]",< 100 nM
24,"CNC(=O)c1ccc(Nc2nc(O[C@H]3CC[C@H](O)CC3)c3c(-c4ccc(O)cc4)c[nH]c3n2)c(OC)c1 [Example 45, 4-(4-((1r,4R)-4-hydroxycyclo-hexyloxy)-5-(4-hydroxyphenyl)-7H-pyrrolo[2,3-d]pyrimidin-2-ylamino)-3-methoxy-N-methylbenzamide]",< 100 nM
25,"CNC(=O)c1ccc(Nc2nc(O[C@H]3CC[C@@H](O)CC3)c3c(-c4ccc(O)cc4)c[nH]c3n2)c(OC)c1 [Example 46, 4-(4-((1s,4s)-4-hydroxycyclo-hexyloxy)-5-(4-hydroxyphenyl)-7H-pyrrolo[2,3-d]pyrimidin-2-ylamino)-3-methoxy-N-methylbenzamide]",< 100 nM
26,"CNC(=O)c1ccc(Nc2nc(OC3CCCC3)c3c(-c4cccc(C(C)(C)O)c4)c[nH]c3n2)c(OC)c1 [Example 47, 4-(4-(cyclopentyloxy)-5-(3-(2-hydroxypropan-2-yl)phenyl)-7H-pyrrolo[2,3-d]pyrimidin-2-ylamino)-3-methoxy-N-methylbenzamide]",400 to 1000 nM
27,"CNC(=O)c1ccc(Nc2nc(OC3CCCC3)c3c(-c4ccc(-c5ncc[nH]5)cc4)c[nH]c3n2)c(OC)c1 [Example 48, 4-(5-(4-(1H-imidazol-2-yl)phenyl)-4-(cyclopentyloxy)-7H-pyrrolo[2,3-d]pyrimidin-2-ylamino)-3-methoxy-N-methylbenzamide]",< 100 nM
28,"CNC(=O)c1ccc(Nc2nc(OC3CCCC3)c3c(-c4ccc(C(C)(C)O)cc4)c[nH]c3n2)c(OC)c1 [Example 49, 4-(4-(cyclopentyloxy)-5-(4-(2-hydroxypropan-2-yl)phenyl)-7H-pyrrolo[2,3-d]pyrimidin-2-ylamino)-3-methoxy-N-methylbenzamide]",100 to 400 nM
29,"COc1cc(-c2cn[nH]c2)ccc1Nc1nc(OC2CCCC2)c2c(-c3ccc(O)cc3)c[nH]c2n1 [Example 50, 4-(4-(cyclopentyloxy)-2-(2-methoxy-4-(1H-pyrazol-4-yl)phenylamino)-7H-pyrrolo[2,3-d]pyrimidin-5-yl) phenol]",< 100 nM
